Measurements published in the supplement of paper PMC10307832.

How the values were obtained:
Test in all cases: relative viability (nuclei count vs DMSO), 5 days (fraction); higher = more cells survive
[1] = compound: C[As](C)SC[C@H](NC(=O)CC[C@H](N)C(=O)O)C(=O)NCC(=O)O [Darinaparsin] + NC(=O)Nc1cc(-c2cccc(F)c2)sc1C(=O)N[C@H]1CCCNC1 [AZD7762] (partner 0.2 µM)
Method in brief: (§1)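 Medians of duplicate plates are given as relative viability. That measure is the nuclei count in treated wells divided by the count in vehicle wells. Counts were taken on 4× images of lung cancer cell lines in 1536-well plates, 5 days after pin-tool dosing the day after seeding with one drug alone or a fixed anchor-drug dose plus five library-drug doses (not always all listed) in √10 steps.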

[2] = compound: C1CC2=C(C1)C=C(C=C2)OC3=NC(=C4C(=N3)N(C=N4)CC5=CC=C(C=C5)C6=CC=CC=C6)N[C@@H](CC7=CC=CC=C7)CO [QS11] + Cc1nc(NC(=O)N2CCC[C@H]2C(N)=O)sc1-c1ccnc(C(C)(C)C(F)(F)F)c1 [Alpelisib] (partner 2 µM)
Method in brief: as §1

[3] = compound: CC1=C(C=C(C=C1)NC(=O)C2=CC(=CC=C2)C(C)(C)C#N)NC3=CC4=C(C=C3)N=CN(C4=O)C [AZ628] + C[C@]1(O)C[C@@H](c2nc(-c3ccc4ccc(-c5ccccc5)nc4c3)c3c(N)nccn32)C1 [Linsitinib] (partner 1 µM)
Method in brief: as §1

[4] = compound: CC1=C(C=C(C=C1)NC(=O)C2=CC(=CC=C2)C(C)(C)C#N)NC3=CC4=C(C=C3)N=CN(C4=O)C [AZ628] + NC(=O)Nc1cc(-c2cccc(F)c2)sc1C(=O)N[C@H]1CCCNC1 [AZD7762] (partner 0.2 µM)
Method in brief: as §1

Cell Line: LCLC-97TM1
- relative viability ([1]; first compound 0.08 µM): 0.128
- relative viability ([1]; first compound 0.8 µM): 0.247
- relative viability ([1]; first compound 2.53 µM): 0.314
- relative viability ([1]; first compound 8 µM): 0.254
- relative viability ([2]; first compound 0.08 µM): 0.225
- relative viability ([2]; first compound 0.253 µM): 0.233
- relative viability ([2]; first compound 0.8 µM): 0.201
- relative viability ([2]; first compound 2.53 µM): 0.323
- relative viability ([2]; first compound 8 µM): 0.299
- relative viability ([3]; first compound 0.08 µM): 0.212
- relative viability ([3]; first compound 0.253 µM): 0.24
- relative viability ([3]; first compound 0.8 µM): 0.179
- relative viability ([3]; first compound 2.53 µM): 0.202
- relative viability ([3]; first compound 8 µM): 0.136
- relative viability ([4]; first compound 0.08 µM): 0.307
- relative viability ([4]; first compound 0.253 µM): 0.331
- relative viability ([4]; first compound 0.8 µM): 0.243
- relative viability ([4]; first compound 2.53 µM): 0.201
- relative viability ([4]; first compound 8 µM): 0.108
